The values below come from patent publication US20230407243A1, “GENETIC PLATFORM TO INVESTIGATE THE FUNCTIONS OF BACTERIAL DRUG EFFLUX PUMPS” (priority 2022, published 2023).

One test concerns EKO-35 gyrB (pCA24N). Put plainly: MIC of strains harboring ASKA plasmids. It is filed as cell-based, Escherichia coli. The note with it: 0.1 mM IPTG; for MIC, EKO-35 gyrB (pCA24N), Chlor +: 4 μg/mL chloramphenicol selection; for MIC, EKO-35 gyrB (pCA24N), Chlor −: no plasmid selection; for MIC: EKO-35 gyrB.
A further test concerns EKO-35 pitA (pCA24N). The experiment in a line: MIC of strains harboring ASKA plasmids. The format is cell-based, Escherichia coli. The note with it: 0.1 mM IPTG; for MIC, EKO-35 pitA (pCA24N), Chlor −: no plasmid selection.
For a further test, the system named is EKO-35 tufA (pCA24N). Put plainly: MIC of strains harboring ASKA plasmids. Particulars: 0.1 mM IPTG; for MIC, EKO-35 tufA (pCA24N), Chlor +: 4 μg/mL chloramphenicol selection; for MIC, EKO-35 tufA (pCA24N), Chlor −: no plasmid selection; for MIC: EKO-35 tufA. The format is cell-based, Escherichia coli.
Another test deals with EKO-35 rspA (pCA24N). The experiment in a line: MIC of strains harboring ASKA plasmids. The format is cell-based, Escherichia coli. The note with it: 0.1 mM IPTG; for MIC, EKO-35 rspA (pCA24N), Chlor +: 4 μg/mL chloramphenicol selection; for MIC, EKO-35 rspA (pCA24N), Chlor −: no plasmid selection; for MIC: EKO-35 rspA.
The next test has as its system K-12 gyrB (pCA24N). Put plainly: MIC of strains harboring ASKA plasmids. It is filed as cell-based. Particulars: Escherichia coli, 0.1 mM IPTG.
In test [1] the test system is EKO-35 strains with integrated RND tripartite efflux pumps (AcrB, AcrEF, AcrD, and MdtEF) with pGDP2:emrE or empty pGDP-2. The experiment in a line: Efflux pump interplay MIC profiling (pGDP2:emrE). The format is cell-based, Escherichia coli. Particulars: for MIC / Fold Change from EKO-35: Pore −.
The subject of test [2] is EKO-35-Pore strains with integrated AcrB, AcrEF, AcrD, MdtEF with pGDP2:emrE or empty pGDP-2. Put plainly: Efflux pump interplay MIC profiling (pGDP2:emrE), porinated. The format is cell-based, Escherichia coli. Particulars: for MIC / Fold Change from EKO-35: Pore +. The source says:
This plasmid enables single-copy genomic integration of a selected gene through integration into the nonessential araC gene within the arabinose operon (Cox, G. et al., 2022). All E. coli genes were amplified from E. coli BW25113 genomic DNA, and mexCD was amplified from P. aeruginosa PAO1, using a high-fidelity polymerase, followed by ligation into pINT2. Successful clones were verified using PCR (Primers: pLac-Fwd/pINT-Rev, Table 4) and confirmed via Sanger sequencing at The Centre for Applied Genomics (TCAG) (The Hospital for Sick Children) and the AAC (University of Guelph). For the interplay studies, this process was repeated using the pGDP2 plasmid (Cox, G. et al., 2022).
To enable comparison between efflux production in different genetic backgrounds, each efflux pump-encoding gene was also integrated into the genome of the wild-type BW25113 strain, the single gene deletion mutant from the Keio Collection, and EKO-35. Strains of interest were propagated on LB agar at 37° C. Cell inoculum was prepared using the colony resuspension method and applied to a 96-well well plate (VWR) in technical duplicate, and the minimum inhibitory concentrations were determined according to Clinical & Laboratory Standards Institute (CLSI) protocols in MHB II (Patel J. B. et al, 2015). The plates were incubated for 18 h (Multitron Shaker, Infors HT) at 37° C. with aeration at 900 rpm. The plates were equilibrated to room temperature before the OD600 nm was measured using a BioTek Synergy H1 microplate reader. For interplay profiling, blank subtracted OD600 nm values >0.1 were considered to represent growth.
To investigate, the EKO-35-Pore strains were profiled using the same approach.

The subject of test [3] is EKO-35-Pore expressing the P. aeruginosa pump mexCD. The experiment in a line: Checkerboard synergy (FICI), porinated strain. It is filed as cell-based, Escherichia coli. The note with it: EKO-35 mexCD Pore. Summed up: (§1)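 Interaction of PAβN or NMP with antibiotics is scored as FICI = CA/MICA + CB/MICB, from MICs (no growth, OD600) in MHB II checkerboard microdilution following CLSI. Solvent controls accompany every plate.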

Test [4] relates to EKO-35-Pore strains producing other efflux pumps. Put plainly: Checkerboard synergy (FICI), porinated strain. It is filed as cell-based, Escherichia coli. The note with it: EKO-35 mdtEF Pore. The gist of the method: as §1
The mark [5] stands for this setting: PAβN alone, one value per checkerboard.

Values after ≈ are worked out from the molar mass of the structure shown. “Also recorded” adds a separate entry of the source. Read-outs that look alike come from different tables or passages of the source.

As for `N#Cc1ccc(-c2c(NC(=O)C(Cl)Cl)oc(-c3cccs3)c2C#N)cc1` [compound 2], in the test on EKO-35 gyrB (pCA24N), the “MIC, EKO-35 gyrB (pCA24N), Chlor +” value is on record as greater than 5 μg/mL and the “MIC, EKO-35 gyrB (pCA24N), Chlor −” value is greater than 5 μg/mL. Further, in the test with EKO-35 pitA (pCA24N), the “MIC, EKO-35 pitA (pCA24N), Chlor −” value is given as greater than 5 μg/mL. In the test on EKO-35 tufA (pCA24N), the “MIC, EKO-35 tufA (pCA24N), Chlor +” value was greater than 5 μg/mL and the “MIC, EKO-35 tufA (pCA24N), Chlor −” value is greater than 5 μg/mL. In the test with EKO-35 rspA (pCA24N), the “MIC, EKO-35 rspA (pCA24N), Chlor +” value is on record as greater than 5 μg/mL and the “MIC, EKO-35 rspA (pCA24N), Chlor −” value is greater than 5 μg/mL.

Turning to `Cn1cc(Br)c(-c2cccc(NC(=O)Nc3ccc(OC(F)(F)F)cc3)c2)n1` [compound 14], in the test with EKO-35 gyrB (pCA24N), the “MIC, EKO-35 gyrB (pCA24N), Chlor +” value is reported as greater than 5 μg/mL and the “MIC, EKO-35 gyrB (pCA24N), Chlor −” value was greater than 5 μg/mL. Also, the “MIC, EKO-35 pitA (pCA24N), Chlor −” value in the test with EKO-35 pitA (pCA24N) is on record as greater than 5 μg/mL. For the same compound, in the test with EKO-35 tufA (pCA24N), the “MIC, EKO-35 tufA (pCA24N), Chlor +” value was greater than 5 μg/mL and the “MIC, EKO-35 tufA (pCA24N), Chlor −” value is reported as greater than 5 μg/mL. For the same compound, in the test on EKO-35 rspA (pCA24N), the “MIC, EKO-35 rspA (pCA24N), Chlor +” value was greater than 5 μg/mL and the “MIC, EKO-35 rspA (pCA24N), Chlor −” value is greater than 5 μg/mL.

For the compound `O=C(Nc1ccccc1C(=O)Nc1nnc(C(F)(F)F)s1)c1ccccc1Cl` [compound 19], in the test with EKO-35 gyrB (pCA24N), the “MIC, EKO-35 gyrB (pCA24N), Chlor +” value was greater than 5 μg/mL and the “MIC, EKO-35 gyrB (pCA24N), Chlor −” value is on record as greater than 5 μg/mL. Besides, the “MIC, EKO-35 pitA (pCA24N), Chlor −” value with EKO-35 pitA (pCA24N) is greater than 5 μg/mL. Also, in the test on EKO-35 tufA (pCA24N), the “MIC, EKO-35 tufA (pCA24N), Chlor +” value is given as greater than 5 μg/mL and the “MIC, EKO-35 tufA (pCA24N), Chlor −” value is on record as greater than 5 μg/mL. In the test on EKO-35 rspA (pCA24N), the “MIC, EKO-35 rspA (pCA24N), Chlor +” value is greater than 5 μg/mL and the “MIC, EKO-35 rspA (pCA24N), Chlor −” value is greater than 5 μg/mL.

For orientation: MIC means the lowest concentration found to suppress growth. On to `CO[C@@H]1[C@@H](OC(N)=O)[C@@H](O)[C@H](Oc2ccc3c(O)c(NC(=O)c4ccc(O)c(CC=C(C)C)c4)c(=O)oc3c2C)OC1(C)C` [novobiocin], for which the “effect of gyrB overexpression on resistance of EKO-35” value in the test with EKO-35 gyrB (pCA24N) (ASKA plasmid) was “increased novobiocin resistance”. Moreover, the MIC in the test with EKO-35 gyrB (pCA24N) (Escherichia coli, Chlor + (4 μg/mL), read-out: MIC) worked out at 25 µg/mL; in the test with K-12 gyrB (pCA24N) (Chlor + (25 μg/mL)) it was 100 µg/mL; with K-12 gyrB (pCA24N) (Chlor −), 400 µg/mL; in [1] (strain EKO-35), 0.781 µg/mL (≈ 1.27 µM); in [1] (strain EKO-35 pEmrE), 0.781 µg/mL (≈ 1.27 µM); in test [1] (strain acrB pEmrE), 400 µg/mL (≈ 653 µM). In addition, the MIC in test [1] (strain acrB) was 400 µg/mL (≈ 653 µM); in test [1] (strain acrD pEmrE), 50 µg/mL (≈ 81.6 µM); in test [1] (strain acrD) it was 100 µg/mL (≈ 163 µM); in [1] (strain acrEF pEmrE) it was 50 µg/mL (≈ 81.6 µM); in [1] (strain acrEF), 100 µg/mL (≈ 163 µM); in [1] (strain mdtEF pEmrE), 6.25 µg/mL (≈ 10.2 µM). Also, the MIC in test [1] (strain mdtEF) is 12.5 µg/mL (≈ 20.4 µM); in [2] (strain EKO-35), 0.391 µg/mL; in [2] (strain EKO-35 pEmrE), 0.391 µg/mL; in test [2] (strain acrB pEmrE) it was 100 µg/mL; in [2] (strain acrB), 100 µg/mL; in test [2] (strain acrD), 25 µg/mL. For the same compound, the MIC stood at 1.56 µg/mL in [2] (strain mdtEF pEmrE) and 3.13 µg/mL in [2] (strain mdtEF). The “interplay of EmrE with tripartite efflux pumps on resistance” value in test [1] (EKO-35, AcrB, AcrEF, AcrD, MdtEF combined with pEmrE) is given as “Interplay was not observed; also recorded: did not observe synergy”; in [2] (EKO-35-Pore, AcrB, AcrEF, AcrD, MdtEF combined with pEmrE), “Interplay was not observed”. For the same compound, the “extrusion by EmrE” value in test [1] (negative controls) was “not extruded by EmrE”. The “Fold Change from EKO-35” value in test [1] (strain EKO-35 pEmrE) came out at 1; in test [1] (strain acrB pEmrE) it was 512; in [1] (strain acrB), 512; in [1] (strain acrD pEmrE) it was 64; in test [1] (strain acrD) it was 128; in test [1] (strain acrEF pEmrE), 64. In addition, the “Fold Change from EKO-35” value came to 128 in test [1] (strain acrEF); 8 in test [1] (strain mdtEF pEmrE); 16 in test [1] (strain mdtEF); 1 in test [2] (strain EKO-35 pEmrE); 256 in [2] (strain acrB pEmrE); 256 in test [2] (strain acrB). Also, the “Fold Change from EKO-35” value was found to be 16 in test [2] (strain acrD pEmrE); 64 in [2] (strain acrD); 32 in test [2] (strain acrEF pEmrE); 32 in test [2] (strain acrEF); 4 in test [2] (strain mdtEF pEmrE); 8 in test [2] (strain mdtEF).

Regarding benzalkonium chloride, the MIC is 0.781 µg/mL in the test on EKO-35 gyrB (pCA24N) (Chlor + (4 μg/mL)); 0.781 µg/mL in the test on EKO-35 gyrB (pCA24N) (Chlor −); 0.781 µg/mL in the test with EKO-35 pitA (pCA24N) (EKO-35 pitA, Chlor −); 0.781 µg/mL in the test on EKO-35 tufA (pCA24N) (Chlor + (4 μg/mL)); 0.781 µg/mL in the test with EKO-35 tufA (pCA24N) (Chlor −); 0.781 µg/mL with EKO-35 rspA (pCA24N) (Chlor + (4 μg/mL)). The MIC in the test on EKO-35 rspA (pCA24N) (Chlor −) amounted to 0.781 µg/mL.

With “phenylalanine-arginine-β-naphthylamide [PAβN]”, the “PABN MICa Alone” value in test [3] (setting [5]) and in test [4] (setting [5]) was 64 µg/mL throughout. In addition, the “PABN MICa Combined” value was found to be 16 µg/mL in test [3] (with Ciprofloxacin), 8 µg/mL in [3] (with Erythromycin), 32 µg/mL in [4] (with Erythromycin) and 8 µg/mL in [4] (with Fusidic Acid).
